Data on 38 compounds can be found in patent US10556902B2 (Asceneuron SA, priority 2016, dated 2020).

Molecules are shown by their SMILES.

For this assay, the target named is His-Tagged hOGA (human O-GlcNAcase) (Homo sapiens (Human), UniProt O60502). Kind of assay: Human O-GlcNAcase enzyme inhibition assay.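 Also: reactions contained 20 nM His-tagged hOGA enzyme with 10 µM FL-GlcNAc substrate.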 It counts as biochemical. Conditions: OGA enzyme inhibition assay; FL-GlcNAc substrate, pH 6.5; activity classes defined in μM; read-out: OGA IC50.
His-Tagged hOGA (human O-GlcNAcase), sequence (O60502 whole entry): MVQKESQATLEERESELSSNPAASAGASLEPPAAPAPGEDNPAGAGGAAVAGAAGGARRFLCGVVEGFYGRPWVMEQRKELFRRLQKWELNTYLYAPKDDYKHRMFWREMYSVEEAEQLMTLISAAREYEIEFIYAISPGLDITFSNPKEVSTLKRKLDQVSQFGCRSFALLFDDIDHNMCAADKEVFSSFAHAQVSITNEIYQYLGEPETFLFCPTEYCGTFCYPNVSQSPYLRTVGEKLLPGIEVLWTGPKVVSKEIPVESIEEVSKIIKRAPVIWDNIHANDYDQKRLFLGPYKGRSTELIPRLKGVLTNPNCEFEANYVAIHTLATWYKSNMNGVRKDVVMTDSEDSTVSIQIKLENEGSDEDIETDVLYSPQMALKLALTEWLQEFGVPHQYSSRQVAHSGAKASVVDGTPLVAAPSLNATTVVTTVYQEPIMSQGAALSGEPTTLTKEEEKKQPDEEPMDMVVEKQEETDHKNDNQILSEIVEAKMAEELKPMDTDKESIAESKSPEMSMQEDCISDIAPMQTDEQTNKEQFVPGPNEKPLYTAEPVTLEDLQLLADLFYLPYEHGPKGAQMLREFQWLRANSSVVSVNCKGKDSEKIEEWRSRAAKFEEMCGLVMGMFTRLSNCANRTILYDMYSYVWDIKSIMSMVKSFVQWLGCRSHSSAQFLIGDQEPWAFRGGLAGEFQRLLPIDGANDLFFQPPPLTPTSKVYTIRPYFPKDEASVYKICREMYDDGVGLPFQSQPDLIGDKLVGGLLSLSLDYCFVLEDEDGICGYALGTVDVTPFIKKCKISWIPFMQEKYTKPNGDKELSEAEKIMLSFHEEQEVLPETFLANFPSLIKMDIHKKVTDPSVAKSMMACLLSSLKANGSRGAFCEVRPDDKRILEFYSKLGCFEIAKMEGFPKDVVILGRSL
Method: Then, 20 nM of His-Tagged hOGA and 10 μM of FL-GlcNAc (Fluorescein mono-beta-D-(2-deoxy-2-N-acetyl) glucopyranoside; Marker Gene Technologies Inc, M1485) were added to the 384-well plate for a final volume of 20 μl.
A word on the IC50: it is the concentration that inhibits the measured activity by half. For `CC(=O)N1CCc2nc(N3CCN(C(C)c4ccc5nccnc5c4)CC3)ncc2C1` (racemic) [Example 6, 1-(2-(4-(1-(quinoxalin-6-yl)ethyl)piperazin-1-yl)-7,8-dihydropyrido[4,3-d]pyrimidin-6(5H)-yl)ethan-1-one], the IC50 is 0.05 to 0.2 µM.
As to `CC(c1ccc2nccnc2c1)N1CCN(c2ncc3c(n2)CCNC3)CC1` (racemic) [Example 8, 2-(4-(1-(quinoxalin-6-yl)ethyl)piperazin-1-yl)-5,6,7,8-tetrahydropyrido [4,3-d] pyrimidine], the IC50 was less than 0.05 µM.
On to `CC(c1ccc2nccnc2c1)N1CCN(c2ncc3c(n2)CCN(C)C3)CC1` (racemic) [Example 9, 6-methyl-2-(4-(1-(quinoxalin-6-yl)ethyl)piperazin-1-yl)-5,6,7,8-tetrahydropyrido[4,3-d]pyrimidine], for which the IC50 is less than 0.05 µM.
The same measure for `CC(=O)N1CCc2nc(N3CCN(C(C)c4ccc5c(c4)OCC5)CC3)sc2C1` (racemic) [Example 10, 1-(2-(4-(1-(2,3-dihydrobenzofuran-6-yl)ethyl)piperazin-1-yl)-6,7-dihydrothiazolo[5,4-c]pyridin-5(4H)-yl)ethan-1-one]: less than 0.05 µM; for `CC(=O)N1CCc2nc(N3CCN(C(C)c4ccc5nccnc5c4)CC3)sc2C1` (racemic) [Example 11, 1-(2-(4-(1-(quinoxalin-6-yl)ethyl)piperazin-1-yl)-6,7-dihydrothiazolo[5,4-c]pyridin-5(4H)-yl)ethan-1-one]: 0.05 to 0.2 µM.
The same measure for `CC(c1ccc2c(c1)OCC2)N1CCN(c2nc3c(s2)C(=O)N(C)CC3)CC1` (racemic) [Example 13, 2-(4-(1-(2,3-dihydrobenzofuran-6-yl)ethyl)piperazin-1-yl)-5-methyl-6,7-dihydrothiazolo[5,4-c]pyridin-4(5H)-one]: less than 0.05 µM.
The same measure for `CC(c1ccc2nccnc2c1)N1CCN(c2nc3c(s2)C(=O)N(C)CC3)CC1` (racemic) [Example 14, 5-methyl-2-(4-(1-(quinoxalin-6-yl)ethyl)piperazin-1-yl)-6,7-dihydrothiazolo[5,4-c]pyridin-4(5H)-one]: 0.2 to 1 µM; for `CC(c1ccc2c(c1)OCC2)N1CCN(c2nc3c(s2)CNCC3)CC1` (racemic) [Example 15, 2-(4-(1-(2,3-dihydrobenzofuran-6-yl)ethyl)piperazin-1-yl)-4,5,6,7-tetrahydrothiazolo[5,4-c]pyridine]: less than 0.05 µM.
For `CC(c1ccc2c(c1)OCC2)N1CCN(c2nc3c(s2)CN(C)CC3)CC1` (racemic) [Example 16, 2-(4-(1-(2,3-dihydrobenzofuran-6-yl)ethyl)piperazin-1-yl)-5-methyl-4,5,6,7-tetrahydrothiazolo[5,4-c]pyridine], the IC50 was less than 0.05 µM.
On to `CC(c1ccc2nccnc2c1)N1CCN(c2nc3c(s2)CNCC3)CC1` (racemic) [Example 19, 2-(4-(1-(quinoxalin-6-yl)ethyl)piperazin-1-yl)-4,5,6,7-tetrahydrothiazolo[5,4-c]pyridine], for which the IC50 lay in the range of 0.05 to 0.2 µM.
As to `CC(c1ccc2nccnc2c1)N1CCN(c2nc3c(s2)CN(C)CC3)CC1` (racemic) [Example 20, 5-Methyl-2-(4-(1-(quinoxalin-6-yl)ethyl)piperazin-1-yl)-4,5,6,7-tetrahydrothiazolo[5,4-c]pyridine], the IC50 lay in the range of 0.05 to 0.2 µM.
On to `CC(c1ccc2nccnc2c1)N1CCN(c2n[nH]c(=O)s2)CC1` (racemic) [Example 21, 5-(4-(1-(quinoxalin-6-yl)ethyl)piperazin-1-yl)-1,3,4-thiadiazol-2(3H)-one], for which the IC50 fell in the range of 0.05 to 0.2 µM.
The same measure for `CC(c1ccc2nccnc2c1)N1CCC(c2n[nH]c(=O)o2)CC1` (racemic) [Example 22, 5-(1-(1-(quinoxalin-6-yl)ethyl)piperidin-4-yl)-1,3,4-oxadiazol-2(3H)-one]: 0.2 to 1 µM.
As to `Cc1nnc(C2CCN(C(C)c3ccc4c(c3)OCC4)CC2)o1` (racemic) [Example 23, 2-(1-(1-(2,3-dihydrobenzofuran-6-yl)ethyl)piperidin-4-yl)-5-methyl-1,3,4-oxadiazole], the IC50 was less than 0.05 µM.
The same measure for `Cc1nnc(C2CCN(C(C)c3ccc4nccnc4c3)CC2)o1` (racemic) [Example 24, 2-methyl-5-(1-(1-(quinoxalin-6-yl)ethyl)piperidin-4-yl)-1,3,4-oxadiazole]: 0.2 to 1 µM.
For the compound `CC(=O)Nc1cnn(C2CCN(C(C)c3ccc4c(c3)OCC4)CC2)c1` (racemic) [Example 25, N-(1-(1-(1-(2,3-dihydrobenzofuran-6-yl)ethyl)piperidin-4-yl)-1H-pyrazol-4-yl)acetamide], the IC50 fell in the range of 0.05 to 0.2 µM.
The figure for `CC(=O)Nc1cnn(C2CCN(C(C)c3ccc4nccnc4c3)CC2)c1` (racemic) [Example 27, N-(1-(1-(1-(quinoxalin-6-yl)ethyl)piperidin-4-yl)-1H-pyrazol-4-yl)acetamide] is 1 to 10 µM; for `CC(c1ccc2c(c1)OCC2)N1CCC(n2cc(CO)cn2)CC1` (racemic) [Example 28, (1-(1-(1-(2,3-dihydrobenzofuran-6-yl)ethyl)piperidin-4-yl)-1H-pyrazol-4-yl) methanol] it is 0.2 to 1 µM; for `CC(c1ccc2c(c1)OCC2)N1CCC(n2cc(C(F)(F)F)cn2)CC1` (racemic) [Example 29, 1-(1-(2,3-Dihydrobenzofuran-6-yl)ethyl)-4-(4-(trifluoromethyl)-1H-pyrazol-1-yl) piperidine] it is 0.2 to 1 µM.
The figure for `CC(c1ccc2c(c1)OCC2)N1CCC(n2cc(F)cn2)CC1` (racemic) [Example 30, 1-(1-(2,3-dihydrobenzofuran-6-yl)ethyl)-4-(4-fluoro-1H-pyrazol-1-yl)piperidine] is 0.2 to 1 µM; for `CCOC(=O)c1cnn(C2CCN(C(C)c3ccc4c(c3)OCC4)CC2)c1` (racemic) [Example 32, Ethyl 1-(1-(1-(2,3-dihydrobenzofuran-6-yl)ethyl)piperidin-4-yl)-1H-pyrazole-4-carboxylate] it is 0.05 to 0.2 µM; for `CC(c1ccc2c(c1)OCC2)N1CCC(n2cc(S(C)(=O)=O)cn2)CC1` (racemic) [Example 34, 1-(1-(2,3-dihydrobenzofuran-6-yl)ethyl)-4-(4-(methylsulfonyl)-1H-pyrazol-1-yl)piperidine] it is 0.2 to 1 µM.
In the case of `CC(O)c1ccc(N2CCN(C(C)c3ccc4c(c3)OCC4)CC2)nn1` (racemic) [Example 35, 1-(6-(4-(1-(2,3-dihydrobenzofuran-6-yl)ethyl)piperazin-1-yl)pyridazin-3-yl)ethan-1-ol], the IC50 is less than 0.05 µM.
For `CC(O)c1ccc(N2CCN(C(C)c3ccc4nccnc4c3)CC2)nn1` (racemic) [Example 36, 1-(6-(4-(1-(quinoxalin-6-yl)ethyl)piperazin-1-yl)pyridazin-3-yl)ethan-1-ol], the 50% inhibitory concentration (IC50) lay in the range of 0.2 to 1 µM.
For `CC(c1ccc2nccnc2c1)N1CCN(c2nnc(CO)s2)CC1` (racemic) [Example 37, (5-(4-(1-(quinoxalin-6-yl)ethyl)piperazin-1-yl)-1,3,4-thiadiazol-2-yl)methanol], the IC50 fell in the range of 0.2 to 1 µM.
With `CC(c1ccc2c(c1)OCC2)N1CCN(c2ccc(C(F)(F)F)nn2)CC1` (racemic) [Example 40, 3-(4-(1-(2,3-dihydrobenzofuran-6-yl)ethyl)piperazin-1-yl)-6-(trifluoromethyl)pyridazine], the IC50 was less than 0.05 µM.
The figure for `CC(c1ccc2nccnc2c1)N1CCN(c2ccc(F)nn2)CC1` (racemic) [Example 41, 6-(1-(4-(6-Fluoropyridazin-3-yl)piperazin-1-yl)ethyl)quinoxaline] is 0.2 to 1 µM; for `CC(c1ccc2nccnc2c1)N1CCN(c2ccc(C(F)(F)F)nn2)CC1` (racemic) [Example 42, 6-(1-(4-(6-(trifluoromethyl)pyridazin-3-yl)piperazin-1-yl)ethyl)quinoxaline] it is 0.2 to 1 µM; for `CC(c1ccc2nccnc2c1)N1CCN(c2ccc(I)nn2)CC1` (racemic) [Example 43] it is 0.2 to 1 µM.
Regarding `Cc1ccc(N2CCN(C(C)c3ccc4nccnc4c3)CC2)nn1` (racemic) [Example 44, 6-(1-(4-(6-Methylpyridazin-3-yl)piperazin-1-yl)ethyl)quinoxaline], the IC50 lay within 0.2 to 1 µM.
The same measure for `CC(c1ccc2c(c1)OCC2)N1CCN(c2ccc(S(C)(=O)=O)nn2)CC1` (racemic) [Example 45, 3-(4-(1-(2,3-dihydrobenzofuran-6-yl)ethyl)piperazin-1-yl)-6-(methylsulfonyl)pyridazine]: less than 0.05 µM; for `CC(O)c1ccc(N2CCN(C(C)c3ccc4c(c3)OCC4)CC2)nc1` (racemic) [Example 47, 1-(6-(4-(1-(2,3-dihydrobenzofuran-6-yl)ethyl)piperazin-1-yl)pyridin-3-yl)ethan-1-ol]: less than 0.05 µM.
On to `CC(c1ccc2c(c1)OCC2)N1CCN(c2ccc(C(C)(C)O)cn2)CC1` (racemic) [Example 48, 2-(6-(4-(1-(2,3-dihydrobenzofuran-6-yl)ethyl)piperazin-1-yl)pyridin-3-yl)propan-2-ol], for which the IC50 was less than 0.05 µM.
Take `CC(C)C(O)c1ccc(N2CCN(C(C)c3ccc4c(c3)OCC4)CC2)nc1` (racemic) [Example 49, 1-(6-(4-(1-(2,3-dihydrobenzofuran-6-yl)ethyl)piperazin-1-yl)pyridin-3-yl)-2-methylpropan-1-ol]: the IC50 is less than 0.05 µM.
In the case of `CC(c1ccc2c(c1)OCC2)N1CCN(c2ccc(C(O)C(F)(F)F)cn2)CC1` (racemic) [Example 50, 1-(6-(4-(1-(2,3-dihydrobenzofuran-6-yl)ethyl)piperazin-1-yl)pyridin-3-yl)-2,2,2-trifluoroethan-1-ol], the half-maximal inhibitory concentration (IC50) is less than 0.05 µM.
On to `CC(c1ccc2nccnc2c1)N1CCN(c2ccc(C(C)(C)O)cn2)CC1` (racemic) [Example 51, 2-(6-(4-(1-(quinoxalin-6-yl)ethyl)piperazin-1-yl)pyridin-3-yl) propan-2-ol], for which the IC50 fell in the range of 0.05 to 0.2 µM.
The same measure for `CC(O)c1ccc(N2CCN(C(C)c3ccc4nccnc4c3)CC2)nc1` (racemic) [Example 52, 1-(6-(4-(1-(quinoxalin-6-yl)ethyl)piperazin-1-yl)pyridin-3-yl)ethan-1-ol]: 0.2 to 1 µM; for `COc1ccc(N2CCN(C(C)c3ccc4nccnc4c3)CC2)cn1` (racemic) [Example 53, 6-(1-(4-(6-methoxypyridin-3-yl)piperazin-1-yl)ethyl)quinoxaline]: 0.2 to 1 µM.
